Measured values published in US20130115220A1, “METHOD FOR PREVENTION OR TREATMENT OF METABOLIC SYNDROME” (DAINIPPON SUMITOMO PHARMA CO., LTD., priority 2010, published 2013).

Biological target: T1, FAS (Mus musculus, UniProt P19096)
T1 construct: endogenous in cells; host or cells: 3T3-L1 adipocytes (treated cells, then lysed)
Test: FAS enzyme activity of treated 3T3-L1 adipocytes
Type: cell-based
Details: 3T3-L1 cells, C75 25 μM, 6 days
Method: The influence of AIM on FAS activity of adipocyte or adipose tissue was examined. FAS activity was measured by the method of Kelley (Kelley et al., Biochem. J., 1986, 235:87-90) with slight modification. 3T3-L1 adipocytes, or lysates of adipose tissue of obese mice was mixed with acetyl-CoA and NADPH (0.2 M […] phosphate buffer [pH 7.0] containing 0.4 mM EDTA), and the mixture was placed in a spectrophotometer cuvette and maintained at 30° C. 20 μl of malonyl-CoA solution (0.2 mM) was added to start an enzyme reaction and decrease of OD was measured at a chart speed 2 cm/min. Based on the results, the enzyme activity of FAS was evaluated using the molar extinction coefficient of […] NADPH as 6220.
First, the FAS activity of 3T3-L1 cells treated for 6 days in the presence or absence of rAIM (5 μg/ml), and in the presence of C75 (25 μM) was measured. Moreover, the FAS activity of adipose tissues of AIM^+/+ mice and AIM^−/− mice and the FAS activity of adipose tissue of AIM^−/− mice administered with rAIM or BSA 3 hr before by intraadipose topical injection are shown in FIGS. 28 and 29, respectively.
All mice were fed with HFD for 20 weeks. The samples were dissolved (lysed) and the FAS activity was measured. The data was converted to that based on FAS protein, according to the results of WB performed using the same sample.

T1 sequence (P19096 whole entry): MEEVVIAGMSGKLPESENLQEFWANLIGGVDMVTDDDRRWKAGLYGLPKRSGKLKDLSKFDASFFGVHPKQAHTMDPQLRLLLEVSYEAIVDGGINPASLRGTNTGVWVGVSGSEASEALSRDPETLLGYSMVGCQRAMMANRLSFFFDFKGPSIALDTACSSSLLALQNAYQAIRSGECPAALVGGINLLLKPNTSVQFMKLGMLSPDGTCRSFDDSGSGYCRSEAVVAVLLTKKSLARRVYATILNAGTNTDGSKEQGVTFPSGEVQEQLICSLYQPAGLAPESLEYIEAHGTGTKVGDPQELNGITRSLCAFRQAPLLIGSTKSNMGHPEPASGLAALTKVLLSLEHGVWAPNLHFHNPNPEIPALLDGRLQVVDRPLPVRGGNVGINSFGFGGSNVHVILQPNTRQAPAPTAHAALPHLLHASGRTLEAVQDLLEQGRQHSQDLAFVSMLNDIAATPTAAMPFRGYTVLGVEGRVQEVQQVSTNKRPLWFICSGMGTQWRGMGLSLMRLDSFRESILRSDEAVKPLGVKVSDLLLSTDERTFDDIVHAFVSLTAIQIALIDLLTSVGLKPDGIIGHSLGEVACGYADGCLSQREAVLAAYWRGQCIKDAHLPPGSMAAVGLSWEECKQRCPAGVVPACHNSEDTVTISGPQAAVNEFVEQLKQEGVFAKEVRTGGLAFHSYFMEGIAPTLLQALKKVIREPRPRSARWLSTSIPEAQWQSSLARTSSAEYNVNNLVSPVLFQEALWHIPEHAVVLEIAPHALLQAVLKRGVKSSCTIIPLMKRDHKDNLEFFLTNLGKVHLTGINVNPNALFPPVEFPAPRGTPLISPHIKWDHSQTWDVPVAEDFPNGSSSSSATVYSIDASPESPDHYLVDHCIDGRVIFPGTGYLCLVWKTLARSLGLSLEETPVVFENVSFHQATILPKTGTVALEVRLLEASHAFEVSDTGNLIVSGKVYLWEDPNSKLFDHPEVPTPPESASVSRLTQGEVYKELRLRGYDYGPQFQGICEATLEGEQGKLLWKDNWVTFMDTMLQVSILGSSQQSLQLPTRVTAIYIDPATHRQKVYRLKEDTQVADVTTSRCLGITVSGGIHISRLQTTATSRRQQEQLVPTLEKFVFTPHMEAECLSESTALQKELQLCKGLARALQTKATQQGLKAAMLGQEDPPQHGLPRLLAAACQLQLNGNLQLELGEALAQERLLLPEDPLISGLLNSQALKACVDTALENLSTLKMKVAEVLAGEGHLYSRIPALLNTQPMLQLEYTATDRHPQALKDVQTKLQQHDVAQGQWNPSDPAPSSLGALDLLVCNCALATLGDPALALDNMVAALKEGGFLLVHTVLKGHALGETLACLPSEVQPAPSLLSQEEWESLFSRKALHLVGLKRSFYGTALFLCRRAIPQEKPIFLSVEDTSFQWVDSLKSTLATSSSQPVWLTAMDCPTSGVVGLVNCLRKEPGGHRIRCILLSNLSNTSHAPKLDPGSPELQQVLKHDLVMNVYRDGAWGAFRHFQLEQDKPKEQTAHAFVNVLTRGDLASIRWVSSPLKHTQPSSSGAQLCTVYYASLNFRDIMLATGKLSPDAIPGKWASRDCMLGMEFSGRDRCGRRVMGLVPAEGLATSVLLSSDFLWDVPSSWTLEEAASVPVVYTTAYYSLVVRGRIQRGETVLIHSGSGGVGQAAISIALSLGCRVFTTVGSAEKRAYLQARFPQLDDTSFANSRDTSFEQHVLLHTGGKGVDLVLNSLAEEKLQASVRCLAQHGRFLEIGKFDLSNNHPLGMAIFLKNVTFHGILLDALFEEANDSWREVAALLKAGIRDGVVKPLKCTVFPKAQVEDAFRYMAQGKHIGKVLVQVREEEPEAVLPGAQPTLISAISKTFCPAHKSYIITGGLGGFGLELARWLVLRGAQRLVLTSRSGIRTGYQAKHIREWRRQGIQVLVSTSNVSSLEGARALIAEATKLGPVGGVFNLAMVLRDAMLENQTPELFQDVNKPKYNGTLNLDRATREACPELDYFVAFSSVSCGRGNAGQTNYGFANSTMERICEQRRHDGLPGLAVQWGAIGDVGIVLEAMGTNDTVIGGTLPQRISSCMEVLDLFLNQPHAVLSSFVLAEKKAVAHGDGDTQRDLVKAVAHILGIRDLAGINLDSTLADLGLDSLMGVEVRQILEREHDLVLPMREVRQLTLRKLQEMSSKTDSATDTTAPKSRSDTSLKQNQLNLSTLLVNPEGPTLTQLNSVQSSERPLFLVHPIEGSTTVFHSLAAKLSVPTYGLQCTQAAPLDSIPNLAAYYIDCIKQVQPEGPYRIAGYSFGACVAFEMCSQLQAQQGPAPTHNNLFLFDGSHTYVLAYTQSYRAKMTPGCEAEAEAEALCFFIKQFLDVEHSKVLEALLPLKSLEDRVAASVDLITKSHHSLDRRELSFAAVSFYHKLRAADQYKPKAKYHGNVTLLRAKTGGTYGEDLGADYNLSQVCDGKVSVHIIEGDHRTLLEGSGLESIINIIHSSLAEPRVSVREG

## C=C1C(=O)OC(CCCCCCCC)C1C(=O)O (stereo not shown) [C75, reference compound]
  FAS activity, level of suppression compared with rAIM: the same
